Measurements from patent US9623015B2, “Combination of an anti-cancer agent such as a tyrosinekinase inhibitor and a STAT5 antagonist, preferably a thiazolidinedione, for eliminating hematologic cancer stem cells in vivo and for preventing hematologic cancer relapse” (Commissariat à L'Energie Atomique et aux Energies …, priority 2012, dated 2017).
Entries after “also recorded” stand apart in the source; their conditions may differ.

How the values were obtained:
STAT5B mRNA = assay: STAT5B RT-qPCR in CP-CML cells; assay type: cell-based, human; conditions: CP-CML cells after 10 days of liquid culture without cytokines; normalized to GAPDH
Source text: RNA extraction and RT-qPCR analysis.

CP-CML LTC-ICs = assay: LTC-IC assay with limiting dilution analysis; assay type: cell-based, human
Description: Colony Forming Cell (CFC) and Long Term Culture—Initiating Cell (LTC-IC) assays. […] Cells were scored and collected after 14 day incubation at 37° C. and 5% CO2. After scoring, colonies were washed with PBS and kept frozen in RNAlater® (Invitrogen) for subsequent analysis. […] After five weeks with weekly change of one half medium volume, all cells were transferred in alpha-MEM based methylcellulose medium (GF H4434, Stemcell technologies) to determine the total clonogenic cell content of each LTC. LTC-IC frequencies were determined using the L-Calc software (Stemcell technologies).

[1] = Imatinib plasma levels in three CML patients; assay type: in vivo, human
CD34+ CP-CML cells = assay: Liquid culture of CD34+ CP-CML cells (fold expansion, viable cells); assay type: cell-based, human; parameters: viab (%): concentration or dose not given beside the values; conditions: for viab (%) / Fold exp: serum-free medium without cytokines; for Fold exp, mean: mean of 7 patients
Description: Cell culture and proliferation assays. K562 cells (2×10^5) were cultured in 96-well plates, in complete Dulbecco's Modified Eagle medium supplemented with 10% fetal calf serum (Gibco®, Life technologies) alone or with variable concentrations of pioglitazone or troglitazone. […] Eight replicates were used for each set of conditions and results were obtained after three independents experiments. CD34^+ cells from patients in CP-CML at diagnosis or umbilical cord blood were immunoselected (CD34 microBead Kit, Miltenyi Biotec) according to the manufacturer's instructions. […] Ph1^+-CD34^+ cells were cultured in serum free medium (SFM) StemSpan (StemCell Technologies) without growth factors.
Flow cytometry. […] For all experiment, cell viability was assessed using SYTOX® Blue dead cell stain (Invitrogen Life Technologies).

STAT5 = STAT5 phosphorylation (flow cytometry) and STAT5 protein (Western blot) in K562 cells; assay type: cell-based; conditions: Imatinib 1 μM
Description: Intracellular STAT5 phosphorylation assays. […] Cells were fixed and permeabilized using Cytofix/Cytoperm kit (BD Pharmingen) and stained with Alexa Fluor® 488-anti-phospho-STAT5 mAb (BD Phosflow) or Alexa Fluor® 488-isotype-matched control to obtain fluorescence minus comparative in each experiment. Analysis was carried on a minimal number of 50,000 events in the viable cell gate. […] (untreated cells p-STAT5 MFI-non treated cells isotype-control MFI)-(drug treated cells p-STAT5 MR-drug treated cells isotype-control MFI). Western blot analysis. For STAT5 protein analysis, K562 cells (2.5×10^5) were lysed in RIPA lysis buffer on ice. […] Proteins were transferred to Hybond N+ filters (Amersham). Membranes were probed with the following antibodies: STAT5 (sc-1656), actin (sc-8432), and goat anti-mouse IgG-HRP (sc-2005) (Santa Cruz Biotechnology Inc.). Antibody binding was detected by the enhanced chemiluminescence ECL+ (Amersham).

[2] = tested on: human cord blood CD34+ cells expressing BCR-ABL; assay: CFC assay after lentivector-mediated expression of BCR-ABL in cord blood CD34+ cells; assay type: cell-based; conditions: BCR-ABL vs eGFP lentivector; drug added for 48 h prior; p<0.002
Description: For CFC assays, CD34^+ cells were suspended (1×10^4) in 3 ml of alpha-MEM based methylcellulose medium (GF H4434, Stemcell Technologies). Cells were scored and collected after 14 day incubation at 37° C. and 5% CO2.
An SIV GAE-SSFV-eGFP vector was used as a control.
Cells were suspended (1×10^6/ml) in StemSpan (StemCell Technologies, France) supplemented with protamine sulfate (4 μg/ml), SCF (100 ng/ml), Flt-3-L (100 ng/ml), IL-3 (20 ng/ml), and IL-6 (20 ng/ml), in a 96-well plate coated with RetroNectin® (Takara Shuzo Co., Japan). Cell suspensions were incubated for 16 hours. Lentiviral vectors were then added and cell suspensions incubated for 12 hours. Cells were washed twice before being seeded.

CML patients [3] = assay: ACTIM clinical trial: molecular response and safety; assay type: in vivo, human
Source text: BCR-ABL transcript level was monitored every 3 months during the study period. Primary objective was the proportion of patients achieving a confirmed undetectable level of BCR-ABL transcript. Secondary objectives included cumulative incidence of CMR4.5 and safety.

CML patients [4] = assay: BCR-ABL/ABL RT-qPCR follow-up of three CML patients given pioglitazone on imatinib; assay type: in vivo, human
[5] = ACTIM companion study: imatinib trough levels; assay type: in vivo, human; conditions: p=ns
[6] = pioglitazone added to imatinib, 24 evaluable patients

Description for CP-CML CD34+ cells: CSFE assays. Fresh CD34^+-enriched cells were stained with 2 μM of 5-(and 6-) carboxyfluorescein diacetate succinimidyl diester (CFSE, Invitrogen). […] Cells were harvested at variable time points as indicated, collected in BD Trucount™ tubes for absolute count (BD Biosciences) and labeled with anti-CD45 and anti-CD34. Then, cells were diluted in 1 mL of phosphate-buffered saline (PBS, Invitrogen Life Technologies) containing 2% fetal calf serum (PAA) and stained for viability. All analyses were carried out on a BD FACS Canto2 Flow Cytometer.

Cc1ccc(NC(=O)c2ccc(CN3CCN(C)CC3)cc2)cc1Nc1nccc(-c2cccnc2)n1 [Imatinib]
decrease of STAT5B mRNA levels (STAT5B mRNA): 1.5 fold | reduction of the frequency of CP-CML LTC-ICs (in words) (CP-CML LTC-ICs; p=0.067 and p=0.02): unable to reduce significantly | plasma levels ([1]; Patient 1, imatinib 300-400 mg/day): 924 ng/mL | plasma levels ([1]; Patient 2, imatinib 300-400 mg/day): 310 ng/mL | plasma levels ([1]; Patient 3, imatinib 400 mg/day): 790 ng/mL | viab (%) (CD34+ CP-CML cells; Patient 1, D 3 in culture): 0.1% | viab (%) (CD34+ CP-CML cells; Patient 1, D 7 in culture): 0.10% | viab (%) (CD34+ CP-CML cells; Patient 2, D 3 in culture): 31.00% | viab (%) (CD34+ CP-CML cells; Patient 2, D 7 in culture): 29.70% | viab (%) (CD34+ CP-CML cells; Patient 3, D 3 in culture): 4.10% | viab (%) (CD34+ CP-CML cells; Patient 3, D 7 in culture): 5.90% | viab (%) (CD34+ CP-CML cells; Patient 4, D 3 in culture): 86.00% | viab (%) (CD34+ CP-CML cells; Patient 4, D 7 in culture): 54.00% | viab (%) (CD34+ CP-CML cells; Patient 5, D 3 in culture): 54.5% | viab (%) (CD34+ CP-CML cells; Patient 5, D 7 in culture): 56.00% | viab (%) (CD34+ CP-CML cells; Patient 6, D 3 in culture): 85.00% | viab (%) (CD34+ CP-CML cells; Patient 6, D 7 in culture): 73.00% | viab (%) (CD34+ CP-CML cells; Patient 7, D 3 in culture): 84.00% | viab (%) (CD34+ CP-CML cells; Patient 7, D 7 in culture): 66.00% | viable CD34+ cells that never divided or had divided only once (CP-CML CD34+ cells; Patient 4, vs. 5% for the untreated control): 34% | effect on cell cycle status / quiescence (CP-CML CD34+ cells; liquid culture without cytokines): induced a selection of insensitive quiescent CML cells | action on STAT5 phosphorylation (STAT5): acts rapidly (minutes) by preventing STAT5 phosphorylation

CCc1ccc(CCOc2ccc(CC3SC(=O)NC3=O)cc2)nc1 (centres unmarked) [pioglitazone]
degree of reduction in colony forming cells (CFC), greater when BCR-ABL was expressed [2]: 1.9 fold | decrease of STAT5B mRNA levels (STAT5B mRNA): 8.5 fold | reduction of the frequency of CP-CML LTC-ICs (CP-CML LTC-ICs; limiting dilution analysis): 2.4 fold | patients with a confirmed undetectable level of BCR-ABL transcript (CML patients [3]; pioglitazone 30 mg/d 2 months then 45 mg/d added to imatinib, 24 evaluable patients): 14% | discontinuation due to adverse events (CML patients [3]; [6]): No patient discontinued due to adverse events | main adverse events (CML patients [3]; [6]): weight gain and worsening fluid retention in 3 patients | one year cumulative incidence of CMR4.5 (CML patients [3]; pioglitazone added to imatinib, control group 27% (p=0.02)): 57% | duration of CMR(Slog) (CML patients [4]; Patient 1, pioglitazone 30 mg/day added after 5 years of imatinib therapy): 56 months | duration of CMR(Slog) (CML patients [4]; Patient 2, pioglitazone 30 mg/day added after 6 year of imatinib therapy, then withdrew): 12 months | time without molecular relapse after stopping imatinib treatment (CML patients [4]; Patient 3): 6 months | time to CMR(Slog) (CML patients [4]; Patient 3, pioglitazone 45 mg/day added to imatinib): 6 months | duration of CMR(Slog) (CML patients [4]; Patient 3, pioglitazone 45 mg/day added to imatinib 400 mg/day): 28 months | interaction between imatinib and pioglitazone in term of through level [5]: No interaction; also recorded: lack of interaction | Fold exp (CD34+ CP-CML cells; Patient 1, D 3 in culture): 0.75 fold | viab (%) (CD34+ CP-CML cells; Patient 1, D 3 in culture): 19.00% | Fold exp (CD34+ CP-CML cells; Patient 1, D 7 in culture): 0.39 fold | viab (%) (CD34+ CP-CML cells; Patient 1, D 7 in culture): 9.00% | Fold exp (CD34+ CP-CML cells; Patient 2, D 3 in culture): 1.25 fold | viab (%) (CD34+ CP-CML cells; Patient 2, D 3 in culture): 47.00% | Fold exp (CD34+ CP-CML cells; Patient 2, D 7 in culture): 2.96 fold | viab (%) (CD34+ CP-CML cells; Patient 2, D 7 in culture): 71.00% | Fold exp (CD34+ CP-CML cells; Patient 3, D 3 in culture): 0.27 fold | viab (%) (CD34+ CP-CML cells; Patient 3, D 3 in culture): 9.90% | Fold exp (CD34+ CP-CML cells; Patient 3, D 7 in culture): 1.69 fold | viab (%) (CD34+ CP-CML cells; Patient 3, D 7 in culture): 17.90% | Fold exp (CD34+ CP-CML cells; Patient 4, D 3 in culture): 2.02 fold | viab (%) (CD34+ CP-CML cells; Patient 4, D 3 in culture): 93.00% | Fold exp (CD34+ CP-CML cells; Patient 4, D 7 in culture): 1.67 fold | viab (%) (CD34+ CP-CML cells; Patient 4, D 7 in culture): 54.00% | Fold exp (CD34+ CP-CML cells; Patient 5, D 3 in culture): 1.32 fold | viab (%) (CD34+ CP-CML cells; Patient 5, D 3 in culture): 73.00% | Fold exp (CD34+ CP-CML cells; Patient 5, D 7 in culture): 0.93 fold | viab (%) (CD34+ CP-CML cells; Patient 5, D 7 in culture): 86.00% | Fold exp (CD34+ CP-CML cells; Patient 6, D 3 in culture): 1.69 fold | viab (%) (CD34+ CP-CML cells; Patient 6, D 3 in culture): 88.00% | Fold exp (CD34+ CP-CML cells; Patient 6, D 7 in culture): 1.87 fold | viab (%) (CD34+ CP-CML cells; Patient 6, D 7 in culture): 85.00% | Fold exp (CD34+ CP-CML cells; Patient 7, D 3 in culture): 0.86 fold | viab (%) (CD34+ CP-CML cells; Patient 7, D 3 in culture): 84.00% | Fold exp (CD34+ CP-CML cells; Patient 7, D 7 in culture): 1.48 fold | viab (%) (CD34+ CP-CML cells; Patient 7, D 7 in culture): 33.00% | Fold exp, mean (CD34+ CP-CML cells; D 3 in culture): 1.17 fold | Fold exp, mean (CD34+ CP-CML cells; D 7 in culture): 1.54 fold
